Source: article PMC11434080, “Acetylation of Oleanolic Acid Dimers as a Method of Synthesis of Powerful Cytotoxic Agents” (Molecules, 2024)
“Also recorded” adds a separate entry of the source. Like-named read-outs stand apart in the source and are kept apart here.

What was measured:
[1] = test system: SKBR-3; assay: MTT assay, SKBR-3; format: cell-based, human; conditions: for SKBR-3 SI: Selectivity Index = IC50 HDF / IC50 SKBR-3; for IC50: SKBR-3 human breast adenocarcinoma, value (SD)
Protocol: (§1) The cytotoxic activity of oleanolic acid (mother compound, 1, Figure 2) and its 14 derivatives (3a–3n, Figure 2) was tested in vitro using the standard MTT method based on viability assay, e.g., [44] against carcinoma cell lines: SKBR-3, SKOV-3, PC-3, U-87, and one normal cell line: HDF.
(§2) Human cancer cells: SKBR-3 and SKOV-3 were cultured in McCoy’s Modified Medium; PC-3 was cultured in an F-12K medium; U-87 was cultured in EMEM medium; HDF was cultured in Fibroblast Basal Medium. Each medium was supplemented with 10% fetal bovine serum, 1% L- glutamine, and 1% penicillin/streptomycin solution. The cell lines were kept in an incubator at 37 °C. All the cell lines and mediums were obtained from the American Type Culture Collection (ATCC) supplied by LGC-Standards (Lomianki, Poland).
(§3) The MTT assay was conducted as described earlier, e.g., [44]. In short, this method is based on the reaction between mitochondria enzymes (dehydrogenases) of tested cell lines and 3-(4,5-dimethylthiazol-2-yl)-2,5-diphenyltetrazolium bromide (MTT). The final product of this reaction gives violet formazan crystals. The number of live cells is proportional to the amount of formazan and is represented by the violet dye reagent. The details of the experiments are given in [44].

[2] = test system: HDF; assay: MTT assay, HDF normal cell line; format: cell-based; conditions: Homo sapiens, value (SD)
Protocol: as §1, §2, §3

[3] = test system: PC-3; assay: MTT assay, PC-3; format: cell-based, human; conditions: for IC50: value (SD); for B SI: Selectivity Index = IC50 HDF / IC50 of PC-3
Protocol: as §1, §2, §3

[4] = test system: U-87; assay: MTT assay, U-87; format: cell-based, human; conditions: for U-87 SI: Selectivity Index = IC50 HDF / IC50 U-87; for IC50: U-87 MG, MTT assay, U-87 human glioblastoma, value (SD)
Protocol: as §1, §2, §3

[5] = test system: SKOV-3; assay: MTT assay, SKOV-3; format: cell-based, human; conditions: for SKOV-3 SI: Selectivity Index = IC50 HDF / IC50 SKOV-3; for IC50: SKOV-3 human ovarian cystadenocarcinoma, value (SD)
Protocol: as §1, §2, §3

[6] = DPPH antioxidant assay; conditions: for DPPH activity (in words): Figure 3
Excerpt: (§4) The results of the antioxidant activity of oleanolic acid (1) and Acetylated Oleanolic Acid Dimers (AcOADs) 3a–3n evaluated with CUPRAC and DPPH assays are given in Figure 3. The results are presented as % inhibition of the copper(II) ions and Trolox equivalent (blue bars) calculated from the standard curve, presented in the Supplementary Materials (Supplementary Materials S02, Figure S1) and as % inhibition of the DPPH radical and Trolox equivalent (pink bars), calculated from the standard curve presented in the Supplementary Materials (Supplementary Materials S02, Figure S2).
(§5) The CUPRAC reagent (7.5 mM ethanolic 96% neocuproine solution, 10 mM CuCl2 × H2O solution, and an ammonium acetate buffer of pH 7.0) and DPPH reagent (2,2-diphenyl-1-picrylhydrazyl 0.2 mM solution) were applied.
(§6) The DPPH assay relies on the ability of an antioxidant to donate a hydrogen atom or an electron to the stable DPPH radical, resulting in its reduction and subsequent color change. In contrast, the CUPRAC method measures the reducing power of a sample by quantifying its ability to convert the Cu-neocuproine reagent complex into the Cu(I) form. The results are presented as % inhibition of the copper(II) ions and Trolox equivalent (blue bars) calculated from the standard curve (Supplementary Materails S02, Figure S1) and as % inhibition of the DPPH radical and Trolox equivalent (pink bars), calculated from the standard curve (Supplementary Materials S02, Figure S2). The details of the experiments are given in [46].

[7] = CUPRAC antioxidant assay
Excerpt: as §4, §5, §6

[8] = test system: SKBR-3, SKOV-3, PC-3, and U-87 cancer cell lines; assay: MTT assay, four cancer cell lines taken together; format: cell-based, human; conditions: for Selectivity Index value: IC50 HDF / IC50 cancer cell line, across the four cancer lines; for IC50: MTT, across SKBR-3, SKOV-3, PC-3, U-87; for level of cytotoxic activity relative to oleanolic acid (1): four cancer cell lines, times more active than oleanolic acid (1)
Protocol: as §1, §2, §3

[9] = MTT assay, PC-3 human prostate carcinoma, read-out: B IC50 (SD)

SMILES	SKBR-3 SI [1]	IC50 [2] [µM]	IC50 [3, 9] [µM]	B SI [3]	U-87 SI [4]	IC50 [4] [µM]	SKOV-3 SI [5]	Selectivity Index value [8]	IC50 ([1]; SK-BR-3, MTT assay) [µM]	IC50 ([8]; Homo sapiens) [µM]	IC50 ([5]; SK-OV-3, MTT assay) [µM]	further results
CC1(C)CC[C@]2(C(=O)O)CC[C@]3(C)C(=CC[C@@H]4[C@@]5(C)CC[C@H](O)C(C)(C)[C@@H]5CC[C@]43C)[C@@H]2C1 [Compound 1, oleanolic acid]	1.27	24.9	18.6	1.33	1.37	18.2	1.32					DPPH antioxidant activity [6]: 0.01907 ± 0.0006506 Trolox equivalents; CUPRAC antioxidant activity [7]: 0.05474 ± 0.00171 Trolox equivalents
CC1(C)CCC2(C(=O)OCCCCCCCCCCCCOC(=O)C34CCC(C)(C)CC3C3=CCC5C6(C)CCC(O)C(C)(C)C6CCC5(C)C3(C)CC4)CCC3(C)C(=CCC4C5(C)CCC(O)C(C)(C)C5CCC43C)C2C1 (stereo not shown) [Compound 2n, reference compound]								higher than 1.00				
CC(=O)OC1CCC2(C)C(CCC3(C)C2CC=C2C4CC(C)(C)CCC4(C(=O)OCCCOC(=O)C45CCC(C)(C)CC4C4=CCC6C7(C)CCC(OC(C)=O)C(C)(C)C7CCC6(C)C4(C)CC5)CCC23C)C1(C)C (stereo not shown) [Compound 3c]	0.80	3.07	2.94	1.04	0.99	3.11	0.97	lower than 1	3.82	2.5 to 4.5	3.15	
CC(=O)OC1CCC2(C)C(CCC3(C)C2CC=C2C4CC(C)(C)CCC4(C(=O)OCCCCOC(=O)C45CCC(C)(C)CC4C4=CCC6C7(C)CCC(OC(C)=O)C(C)(C)C7CCC6(C)C4(C)CC5)CCC23C)C1(C)C (stereo not shown) [Compound 3d]	1.58	4.78	3.59	1.33	1.35	3.54	1.65	higher than 1.00	3.03	2.5 to 4.5	2.89	
CC(=O)OC1CCC2(C)C(CCC3(C)C2CC=C2C4CC(C)(C)CCC4(C(=O)OCC=CCOC(=O)C45CCC(C)(C)CC4C4=CCC6C7(C)CCC(OC(C)=O)C(C)(C)C7CCC6(C)C4(C)CC5)CCC23C)C1(C)C (stereo not shown) [Compound 3e]	2.17	6.66	3.35	1.99	1.91	3.48	2.26		3.07	2.5 to 4.5	2.95	CUPRAC activity (in words) ([7]; Figure 3): highest CUPRAC activity
CC(=O)OC1CCC2(C)C(CCC3(C)C2CC=C2C4CC(C)(C)CCC4(C(=O)OCC=CCOC(=O)C45CCC(C)(C)CC4C4=CCC6C7(C)CCC(OC(C)=O)C(C)(C)C7CCC6(C)C4(C)CC5)CCC23C)C1(C)C (stereo not shown) [Compound 3f]	0.57			0.60	0.59		0.58	about 0.5		4.65 to 7.06		IC50 ([1]; Homo sapiens, SK-BR-3, MTT assay): 7.06 µM; IC50 ([2]; HDF): 4.02 µM; IC50 ([3]; Homo sapiens, PC-3, read-out: B IC50 (SD), MTT assay, PC-3 human prostate carcinoma): 6.7 µM; IC50 ([4]; Homo sapiens): 6.8 µM; level of cytotoxic activity relative to oleanolic acid (1) [8]: approximately 3 times; IC50 ([5]; Homo sapiens, SK-OV-3, MTT assay): 6.92 µM
CC(=O)OC1CCC2(C)C(CCC3(C)C2CC=C2C4CC(C)(C)CCC4(C(=O)OCCCCCOC(=O)C45CCC(C)(C)CC4C4=CCC6C7(C)CCC(OC(C)=O)C(C)(C)C7CCC6(C)C4(C)CC5)CCC23C)C1(C)C (stereo not shown) [Compound 3g]	1.22	5.66	4.1	1.38	1.38	4.09	1.34	higher than 1.00	4.65	2.5 to 4.5	4.23	
CC(=O)OC1CCC2(C)C(CCC3(C)C2CC=C2C4CC(C)(C)CCC4(C(=O)OCCCCCCOC(=O)C45CCC(C)(C)CC4C4=CCC6C7(C)CCC(OC(C)=O)C(C)(C)C7CCC6(C)C4(C)CC5)CCC23C)C1(C)C (stereo not shown) [Compound 3h]	1.30	6.85	5.13	1.33	1.47	4.65	1.45	higher than 1.00	5.25	4.65 to 7.06	4.72	level of cytotoxic activity relative to oleanolic acid (1) [8]: approximately 3 times
CC(=O)OC1CCC2(C)C(CCC3(C)C2CC=C2C4CC(C)(C)CCC4(C(=O)OCCCCCCCOC(=O)C45CCC(C)(C)CC4C4=CCC6C7(C)CCC(OC(C)=O)C(C)(C)C7CCC6(C)C4(C)CC5)CCC23C)C1(C)C (stereo not shown) [Compound 3i]	0.92	1.85	1.9	0.97	0.93	1.98	0.96	lower than 1	2	~2	1.93	IC50 [8]: ≤ 2 µM
CC(=O)OC1CCC2(C)C(CCC3(C)C2CC=C2C4CC(C)(C)CCC4(C(=O)OCCCCCCCCOC(=O)C45CCC(C)(C)CC4C4=CCC6C7(C)CCC(OC(C)=O)C(C)(C)C7CCC6(C)C4(C)CC5)CCC23C)C1(C)C (stereo not shown) [Compound 3j]	2.31	6.4	2.72	2.32	2.32	2.76	2.28		2.77	2.5 to 4.5	2.81	DPPH activity (in words) [6]: higher antioxidant activity than OA
CC(=O)OC1CCC2(C)C(CCC3(C)C2CC=C2C4CC(C)(C)CCC4(C(=O)OCCCCCCCCCOC(=O)C45CCC(C)(C)CC4C4=CCC6C7(C)CCC(OC(C)=O)C(C)(C)C7CCC6(C)C4(C)CC5)CCC23C)C1(C)C (stereo not shown) [Compound 3k]	0.74	1.94	2.45	0.79	0.92	2.1	0.73		2.61	~2	2.66	DPPH activity (in words) [6]: higher antioxidant activity than OA
CC(=O)OC1CCC2(C)C(CCC3(C)C2CC=C2C4CC(C)(C)CCC4(C(=O)OCCCCCCCCCCOC(=O)C45CCC(C)(C)CC4C4=CCC6C7(C)CCC(OC(C)=O)C(C)(C)C7CCC6(C)C4(C)CC5)CCC23C)C1(C)C (stereo not shown) [Compound 3l]	0.61	3.62	5.95	0.61	0.66	5.47	0.61		5.91	4.65 to 7.06	5.95	level of cytotoxic activity relative to oleanolic acid (1) [8]: approximately 3 times; DPPH activity (in words) [6]: higher antioxidant activity than OA; also recorded: highest activity; also recorded: extremely high DPPH activity
